The source of these data is patent US12209087B2, “AKT1 modulators” (Alterome Therapeutics, Inc., priority 2022, dated 2025).

SMILES strings stand for the structures.

The first test deals with T1, full length AKT E17K (Homo sapiens, UniProt P31749, E17K).
T1 construct: host or cells: HEK-293 (ATCC CRL-1573)
T1 sequence (P31749 whole entry E17K): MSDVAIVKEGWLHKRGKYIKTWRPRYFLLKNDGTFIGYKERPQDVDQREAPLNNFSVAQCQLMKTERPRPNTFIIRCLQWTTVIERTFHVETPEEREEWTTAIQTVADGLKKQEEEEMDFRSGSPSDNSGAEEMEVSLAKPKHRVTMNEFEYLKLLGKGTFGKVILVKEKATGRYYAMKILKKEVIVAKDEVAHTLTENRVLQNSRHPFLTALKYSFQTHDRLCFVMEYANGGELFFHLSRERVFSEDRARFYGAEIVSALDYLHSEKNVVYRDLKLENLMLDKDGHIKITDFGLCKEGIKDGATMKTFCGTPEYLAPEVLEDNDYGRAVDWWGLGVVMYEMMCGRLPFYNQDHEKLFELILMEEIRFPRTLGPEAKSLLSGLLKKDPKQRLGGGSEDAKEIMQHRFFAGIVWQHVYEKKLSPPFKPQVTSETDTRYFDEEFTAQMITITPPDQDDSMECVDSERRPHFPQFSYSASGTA
In words: NanoBRET Target Engagement (TE) Assay. Format: cell-based. The following applies: competitive displacement of tracer in cells, read-out: AKT1 E17K IC50. A digest of the protocol: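 Compound and tracer incubated 2 h before luminescence at donor 450 nm and acceptor 600 nm, with extracellular signal inhibited. EC50 by sigmoidal variable-slope regression.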
On the technique in general: In BRET a luciferase serves as donor, and the signal depends on an acceptor being close.
As usually defined, the IC50 is the midpoint of a concentration-inhibition curve. Turning to `N#Cc1nccc(NC2CCN(Cc3ccc(-n4c(-c5cccnc5N)nc5cc(F)cnc54)cc3)CC2)n1` [Example 402, 4-((1-(4-(2-(2-Aminopyridin-3-yl)-6-fluoro-3H-imidazo[4,5-b]pyridin-3-yl)benzyl)piperidin-4-yl)amino)pyrimidine-2-carbonitrile], the IC50 was under 15 nM. `N#Cc1ccc(-c2ccc3nc(-c4cccnc4N)n(-c4ccc(CN5CCC(Nc6ccnc(C#N)n6)CC5)cc4)c3n2)nc1` [Example 418, 4-((1-(4-(2-(2-Aminopyridin-3-yl)-5-(5-cyanopyridin-2-yl)-3H-imidazo[4,5-b]pyridin-3-yl)benzyl)piperidin-4-yl)amino)pyrimidine-2-carbonitrile]: the IC50 fell in the range of 15 to 60 nM. Turning to `Cc1cnc(-c2ccc3nc(-c4cccnc4N)n(-c4ccc(CN5CCC(Nc6ccnc(C#N)n6)CC5)cc4)c3n2)nc1` [Example 604, 4-((1-(4-(2-(2-Aminopyridin-3-yl)-5-(5-methylpyrimidin-2-yl)-3H-imidazo[4,5-b]pyridin-3-yl)benzyl)piperidin-4-yl)amino)pyrimidine-2-carbonitrile], the IC50 is under 15 nM. On to `CN(C(=O)c1ccnc(C#N)n1)C1CCN(Cc2ccc(-n3c(-c4cccnc4N)nc4ccc(-c5ccccc5)nc43)cc2)CC1` [Example 336, N-(1-(4-(2-(2-aminopyridin-3-yl)-5-phenyl-3H-imidazo[4,5-b]pyridin-3-yl)benzyl)piperidin-4-yl)-2-cyano-N-methylpyrimidine-4-carboxamide], for which the IC50 was under 15 nM. In the case of `Cc1ccc(-c2ccc3nc(-c4cccnc4N)n(-c4ccc(CN5CCC(Nc6ccnc(C#N)n6)CC5)cc4)c3n2)nc1` [Example 547, 4-((1-(4-(2-(2-Aminopyridin-3-yl)-5-(5-methylpyridin-2-yl)-3H-imidazo[4,5-b]pyridin-3-yl)benzyl)piperidin-4-yl)amino)pyrimidine-2-carbonitrile], the IC50 is under 15 nM. For the compound `N#Cc1nccc(NC2CCN(Cc3ccc(-n4c(-c5cccnc5N)nc5ccc(-c6ccc(C(F)F)nc6)nc54)cc3)CC2)n1` [Example 645, 4-((1-(4-(2-(2-Aminopyridin-3-yl)-5-(6-(difluoromethyl)pyridin-3-yl)-3H-imidazo[4,5-b]pyridin-3-yl)benzyl)piperidin-4-yl)amino)pyrimidine-2-carbonitrile], the IC50 is under 15 nM. The same measure, in the same setting: the figure for `CCOc1ccc(-c2ccc3nc(-c4cccnc4N)n(-c4ccc(CN5CCC(Nc6ccnc(C#N)n6)CC5)cc4)c3n2)cn1` [Example 584, 4-((1-(4-(2-(2-Aminopyridin-3-yl)-5-(6-ethoxypyridin-3-yl)-3H-imidazo[4,5-b]pyridin-3-yl)benzyl)piperidin-4-yl)amino)pyrimidine-2-carbonitrile] is under 15 nM; for `COc1cnccc1-c1ccc2nc(-c3cccnc3N)n(-c3ccc(CN4CCC(Nc5ccnc(C#N)n5)CC4)cc3)c2n1` [Example 515, 4-((1-(4-(2-(2-Aminopyridin-3-yl)-5-(3-methoxypyridin-4-yl)-3H-imidazo[4,5-b]pyridin-3-yl)benzyl)piperidin-4-yl)amino)pyrimidine-2-carbonitrile] it is under 15 nM. Still for that read-out and setting: the figure for `N#Cc1cc(N2CCN(Cc3ccc(-n4c(-c5cccnc5N)nc5ccc(-c6ccccc6Cl)nc54)cc3)CC2)ncn1` [Example 326, 6-(4-(4-(2-(2-Aminopyridin-3-yl)-5-(2-chlorophenyl)-3H-imidazo[4,5-b]pyridin-3-yl)benzyl)piperazin-1-yl)pyrimidine-4-carbonitrile] is 15 to 60 nM. Still for that read-out and setting: the figure for `N#Cc1nccc(NC2CCN(Cc3ccc(-n4c(-c5cccnc5N)nc5ccc(-c6ccncc6F)nc54)cc3)CC2)n1` [Example 551, 4-((1-(4-(2-(2-aminopyridin-3-yl)-5-(3-fluoropyridin-4-yl)-3H-imidazo[4,5-b]pyridin-3-yl)benzyl)piperidin-4-yl)amino)pyrimidine-2-carbonitrile] is under 15 nM; for `N#Cc1nccc(NC2CCN(Cc3ccc(-n4c(-c5cncnc5N)nc5ccc(-c6ccc(F)cn6)nc54)cc3)CC2)n1` [Example 573, 4-((1-(4-(2-(4-Aminopyrimidin-5-yl)-5-(5-fluoropyridin-2-yl)-3H-imidazo[4,5-b]pyridin-3-yl)benzyl)piperidin-4-yl)amino)pyrimidine-2-carbonitrile] it is 15 to 60 nM. As to `N#Cc1nccc(NC2CCN(Cc3ccc(-n4c(-c5cccnc5N)nc5ccc(-c6ccc(F)cc6F)nc54)cc3)CC2)n1` [Example 475, 4-((1-(4-(2-(2-Aminopyridin-3-yl)-5-(2,4-difluorophenyl)-3H-imidazo[4,5-b]pyridin-3-yl)benzyl)piperidin-4-yl)amino)pyrimidine-2-carbonitrile], the IC50 was under 15 nM. `N#Cc1cccc(-c2ccc3nc(-c4cccnc4N)n(-c4ccc(CN5CCN(c6ccnc(C#N)n6)CC5)cc4)c3n2)c1` [Example 331, 4-(4-(4-(2-(2-Aminopyridin-3-yl)-5-(3-cyanophenyl)-3H-imidazo[4,5-b]pyridin-3-yl)benzyl)piperazin-1-yl)pyrimidine-2-carbonitrile]: the IC50 was under 15 nM. With `N#Cc1nccc(N2CCC3(CCN(Cc4ccc(-n5c(-c6cccnc6N)nc6ccc(-c7ccccc7)nc65)cc4)CC3)CC2)n1` [Example 364, 4-(9-(4-(2-(2-Aminopyridin-3-yl)-5-phenyl-3H-imidazo[4,5-b]pyridin-3-yl)benzyl)-3,9-diazaspiro[5.5]undecan-3-yl)pyrimidine-2-carbonitrile], the IC50 lay within 15 to 60 nM. On the same count and under the same terms, then `N#Cc1nccc(NC2CCN(Cc3ccc(-n4c(-c5cccnc5N)nc5ccc(-c6ncc(F)cn6)nc54)cc3)CC2)n1` [Example 603, 4-((1-(4-(2-(2-Aminopyridin-3-yl)-5-(5-fluoropyrimidin-2-yl)-3H-imidazo[4,5-b]pyridin-3-yl)benzyl)piperidin-4-yl)amino)pyrimidine-2-carbonitrile], with under 15 nM. Still for that read-out and setting: the figure for `N#Cc1nccc(NC2CCN(Cc3ccc(-n4c(-c5cccnc5N)nc5cnccc54)cc3)CC2)n1` [Example 540, 4-((1-(4-(2-(2-Aminopyridin-3-yl)-1H-imidazo[4,5-c]pyridin-1-yl)benzyl)piperidin-4-yl)amino)pyrimidine-2-carbonitrile] is 60 to 600 nM.

The test is the same for the next values; noted with them: competitive tracer displacement in living cells, read-out: AKT1 E17K IC50.
For the compound `N#Cc1nccc(C(=O)N2CCN(Cc3ccc(-n4c(-c5cccnc5N)nc5ccc(-c6ccccc6)nc54)cc3)CC2)n1` [Example 141, 4-(4-(4-(2-(2-Aminopyridin-3-yl)-5-phenyl-3H-imidazo[4,5-b]pyridin-3-yl)benzyl)piperazine-1-carbonyl)pyrimidine-2-carbonitrile], the IC50 is under 15 nM. Still for that read-out and setting: then `N#Cc1nccc(N2CCN(Cc3ccc(-n4c(-c5cccnc5N)nc5ccc(-c6ccccc6C#N)nc54)cc3)CC2)n1` [Example 293, 4-(4-(4-(2-(2-Aminopyridin-3-yl)-5-(2-cyanophenyl)-3H-imidazo[4,5-b]pyridin-3-yl)benzyl)piperazin-1-yl)pyrimidine-2-carbonitrile], with under 15 nM; and `N#Cc1ccc(C(=O)N2CCN(Cc3ccc(-n4c(-c5cccnc5N)nc5ccc(-c6ccccc6)nc54)cc3)CC2)cn1` [Example 166, 5-(4-(4-(2-(2-Aminopyridin-3-yl)-5-phenyl-3H-imidazo[4,5-b]pyridin-3-yl)benzyl)piperazine-1-carbonyl)picolinonitrile], with 15 to 60 nM; and `N#Cc1nccc(NC2CCN(Cc3ccc(-n4c(-c5cccnc5N)nc5ccc(-c6ccccc6)nc54)cc3)CC2)n1` [Example 88, 4-((1-(4-(2-(2-Aminopyridin-3-yl)-5-phenyl-3H-imidazo[4,5-b]pyridin-3-yl)benzyl)piperidin-4-yl)amino)pyrimidine-2-carbonitrile], with under 15 nM. On the same count and under the same terms, the figure for `C[C@@H]1CN(Cc2ccc(-n3c(-c4cccnc4N)nc4ccc(-c5ccccc5)nc43)cc2)C[C@H](C)N1c1ncnc(C#N)n1` [Example 277, 4-((2R,6S)-4-(4-(2-(2-aminopyridin-3-yl)-5-phenyl-3H-imidazo[4,5-b]pyridin-3-yl)benzyl)-2,6-dimethylpiperazin-1-yl)-1,3,5-triazine-2-carbonitrile] is 15 to 60 nM. On the same count and under the same terms, then `N#Cc1cc(NC2CCN(Cc3ccc(-n4c(-c5cccnc5N)nc5ccc(-c6cccc(F)c6)nc54)cc3)CC2)ncn1` [Example 311, 6-((1-(4-(2-(2-Aminopyridin-3-yl)-5-(3-fluorophenyl)-3H-imidazo[4,5-b]pyridin-3-yl)benzyl)piperidin-4-yl)amino)pyrimidine-4-carbonitrile], with under 15 nM. For `N#Cc1cc(C(=O)N2CCN(Cc3ccc(-n4c(-c5cccnc5N)nc5ccc(-c6ccccc6)nc54)cc3)CC2)ccn1` [Example 172, 4-(4-(4-(2-(2-Aminopyridin-3-yl)-5-phenyl-3H-imidazo[4,5-b]pyridin-3-yl)benzyl)piperazine-1-carbonyl)picolinonitrile], the IC50 was 15 to 60 nM.

For `N#Cc1cc(NC2CCN(Cc3ccc(-n4c(-c5cccnc5N)nc5cccnc54)cc3)CC2)ccn1` [Example 62, 4-((1-(4-(2-(2-Aminopyridin-3-yl)-3H-imidazo[4,5-b]pyridin-3-yl)benzyl)piperidin-4-yl)amino)picolinonitrile], the IC50 was in the range of 600 to 10000 nM.

For the compound `N#Cc1ccnc(C(=O)N2CCN(Cc3ccc(-n4c(-c5cccnc5N)nc5cccnc54)cc3)CC2)c1` [Example 149, 2-(4-(4-(2-(2-Aminopyridin-3-yl)-3H-imidazo[4,5-b]pyridin-3-yl)benzyl)piperazine-1-carbonyl)isonicotinonitrile], the IC50 was 600 to 10000 nM. Still for that read-out and setting: then `N#Cc1ncc(NCc2ccc(-n3c(-c4cccnc4N)nc4cccnc43)cc2)cn1` [Example 95, 5-((4-(2-(2-Aminopyridin-3-yl)-3H-imidazo[4,5-b]pyridin-3-yl)benzyl)amino)pyrimidine-2-carbonitrile], with 600 to 10000 nM; and `N#Cc1ccc(C(=O)NC2CCN(Cc3ccc(-n4c(-c5cccnc5N)nc5ccc(-c6ccccc6)nc54)cc3)CC2)nc1` [Example 81, N-(1-(4-(2-(2-Aminopyridin-3-yl)-5-phenyl-3H-imidazo[4,5-b]pyridin-3-yl)benzyl)piperidin-4-yl)-5-cyanopicolinamide], with 60 to 600 nM.
